Test results reported in patent US20100298141A1, “SUBSTITUTED PYRIDINE N-OXIDE HERBICIDES” (E. I. DU PONT DE NEMOURS AND COMPANY, priority 2007, published 2010).

Assays:
green foxtail = test: Test F preemergence test; type: in vivo, Setaria viridis; details: scale 0 to 100
How it was run: (§1)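 Compound in a non-phytotoxic solvent blend with surfactant is applied preemergence to planted seeds or postemergence to sugarcane plants. Plants and controls stay in the greenhouse 14 to 21 days before visual comparison.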

quackgrass = test: Test F preemergence test; type: in vivo, Elytrigia repens; details: scale 0 to 100
How it was run: as §1

crabgrass = test: Test C pre-/postemergence test; type: in vivo, Digitaria sanguinalis; details: Preemergence; for Crabgrass, Large plant response rating: 62 g ai/ha, scale 0 to 100; for Plant response rating, Crabgrass, Large: 31 g ai/ha, scale 0 to 100 (0 no effect, 100 complete control); for Plant response rating (0 to 100), Crabgrass, Large: 250 g ai/ha
How it was run: (§2)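 Compounds in a non-phytotoxic solvent with surfactant applied preemergence to seeded pots and, at the same time, postemergence to plants 2–18 cm tall (1- to 4-leaf stage). Paddy tests: pots flooded to 3 cm, compound applied into the water, depth held throughout.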

annual bluegrass = test: Test F preemergence test; type: in vivo, Poa annua; details: scale 0 to 100
How it was run: as §1

common mallow = test: Test F preemergence test; type: in vivo, Malva sylvestris; details: scale 0 to 100
How it was run: as §1

dallisgrass = test: Test F preemergence test; type: in vivo, Paspalum dilatatum; details: scale 0 to 100
How it was run: as §1

umbrella sedge = test: Test C flooded paddy test; type: in vivo, Cyperus difformis; details: Flood
How it was run: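 Ratings were visual and made relative to untreated controls after 13 to 15 greenhouse days.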

kochia = test: Test F preemergence test; type: in vivo, Kochia scoparia; details: scale 0 to 100
How it was run: as §1

mustard = test: Test F preemergence test; type: in vivo, Brassica nigra; details: scale 0 to 100
How it was run: as §1

wheat = test: Test A pre-/postemergence greenhouse test; type: in vivo, Triticum aestivum; details: for Wheat plant response rating: 0 to 100 scale; for Plant response rating, Wheat: 0 to 100 scale where 0 is no effect and 100 is complete control
How it was run: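 Seeds sown in a loam soil–sand blend got a preemergence directed soil spray of compound in a non-phytotoxic solvent mixture containing surfactant. Postemergence sprays of the same formulation went at the same time onto plants 2–10 cm tall at the one- to two-leaf stage. Injury was scored visually against untreated controls after about ten days in the greenhouse.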

Goosegrass = test: Test C pre-/postemergence test; type: in vivo, Eleusin indica; details: Preemergence; for Goosegrass plant response rating: 62 g ai/ha, scale 0 to 100; for Plant response rating, Goosegrass: 31 g ai/ha, scale 0 to 100 (0 no effect, 100 complete control); for Plant response rating (0 to 100), Goosegrass: 250 g ai/ha
How it was run: as §2

common groundsel = test: Test F preemergence test; type: in vivo, Senecio vulgaris; details: scale 0 to 100
How it was run: as §1

[1] = 31 g ai/ha, scale 0 to 100 (0 no effect, 100 complete control)
[2] = 62 g ai/ha, scale 0 to 100, 0 no effect, 100 complete control, 13 to 15 days
[3] = 125 g ai/ha, scale 0 to 100, 0 no effect, 100 complete control, 13 to 15 days
[4] = 250 g ai/ha, scale 0 to 100, 0 no effect, 100 complete control, 13 to 15 days
[5] = Postemergence, 125 g ai/ha, 0 is no effect, 100 is complete control
[6] = Postemergence, 500 g ai/ha, 0 is no effect, 100 is complete control
[7] = Preemergence, 125 g ai/ha, 0 no effect, 100 complete control

Cc1cc[n+]([O-])c([S+]([O-])Cc2c(C(F)(F)F)nn(C)c2OCC(F)(F)F)c1 (racemic) [Compound 30]
60: Wheat plant response rating (wheat; [5])
50: Plant response rating, Bluegrass (annual bluegrass; Preemergence, 31 g ai/ha) | Plant response rating, Dallisgrass (dallisgrass; Preemergence, 16 g ai/ha) | Plant response rating, Dallisgrass (dallisgrass; Preemergence, 31 g ai/ha) | Plant response rating, Groundsel (common groundsel; Preemergence, 16 g ai/ha)
65: Bluegrass plant response rating (annual bluegrass; 62 g ai/ha, Preemergence)
75: Foxtail, Green plant response rating (green foxtail; 62 g ai/ha, Preemergence) | Quackgrass plant response rating (quackgrass; 125 g ai/ha, preemergence)
100: Foxtail, Green plant response rating (green foxtail; 125 g ai/ha, preemergence) | Plant response rating (0 to 100), Crabgrass, Large (crabgrass) | Mallow plant response rating (common mallow; 62 g ai/ha, Preemergence) | Mallow plant response rating (common mallow; 125 g ai/ha, preemergence) | Plant response rating, Sedge, Umbrella (umbrella sedge; [2]) | Plant response rating, Sedge, Umbrella (umbrella sedge; [3]) | Plant response rating, Sedge, Umbrella (umbrella sedge; [4]) | Black Mustard plant response rating (mustard; 62 g ai/ha, Preemergence) | Black Mustard plant response rating (mustard; 125 g ai/ha, preemergence) | Goosegrass plant response rating (Goosegrass) | Plant response rating (0 to 100), Goosegrass (Goosegrass) | Groundsel plant response rating (common groundsel; 125 g ai/ha, preemergence)
90: Plant response rating, Mallow (common mallow; Preemergence, 16 g ai/ha) | Plant response rating, Kochia (kochia; Preemergence, 16 g ai/ha) | Plant response rating, Kochia (kochia; Preemergence, 31 g ai/ha) | Plant response rating, Black Mustard (mustard; Preemergence, 31 g ai/ha) | Plant response rating, Wheat (wheat; Preemergence, 500 g ai/ha) | Groundsel plant response rating (common groundsel; 62 g ai/ha, Preemergence) | Plant response rating, Groundsel (common groundsel; Preemergence, 31 g ai/ha)
40: Plant response rating, Quackgrass (quackgrass; Preemergence, 31 g ai/ha)
35: Plant response rating, Bluegrass (annual bluegrass; Preemergence, 16 g ai/ha)
80: Bluegrass plant response rating (annual bluegrass; 125 g ai/ha, preemergence) | Plant response rating, Sedge, Umbrella (umbrella sedge; [1]) | Wheat plant response rating (wheat; [7])
95: Plant response rating, Mallow (common mallow; Preemergence, 31 g ai/ha) | Kochia plant response rating (kochia; 62 g ai/ha, Preemergence) | Kochia plant response rating (kochia; 125 g ai/ha, preemergence)
70: Quackgrass plant response rating (quackgrass; 62 g ai/ha, Preemergence) | Plant response rating, Black Mustard (mustard; Preemergence, 16 g ai/ha) | Wheat plant response rating (wheat; [6])
85: Dallisgrass plant response rating (dallisgrass; 62 g ai/ha, Preemergence)
15: Plant response rating, Foxtail, Green (green foxtail; Preemergence, 16 g ai/ha) | Plant response rating, Quackgrass (quackgrass; Preemergence, 16 g ai/ha)
25: Plant response rating, Foxtail, Green (green foxtail; Preemergence, 31 g ai/ha)
98: Crabgrass, Large plant response rating (crabgrass) | Plant response rating, Crabgrass, Large (crabgrass) | Dallisgrass plant response rating (dallisgrass; 125 g ai/ha, preemergence) | Plant response rating, Goosegrass (Goosegrass)

CC(c1c(C(F)(F)F)nn(C)c1OCC(F)(F)F)S(=O)(=O)c1cccc[n+]1[O-] (racemic) [Compound 33]
80: Dallisgrass plant response rating (dallisgrass; 62 g ai/ha, Preemergence) | Plant response rating, Sedge, Umbrella (umbrella sedge; [1])
0: Plant response rating, Foxtail, Green (green foxtail; 16 g ai/ha, preemergence) | Plant response rating, Quackgrass (quackgrass; 16 g ai/ha, preemergence) | Plant response rating, Kochia (kochia; 16 g ai/ha, preemergence)
95: Quackgrass plant response rating (quackgrass; 125 g ai/ha, preemergence) | Plant response rating, Sedge, Umbrella (umbrella sedge; [3]) | Plant response rating, Sedge, Umbrella (umbrella sedge; [4])
60: Wheat plant response rating (wheat; [5]) | Wheat plant response rating (wheat; [7])
10: Plant response rating, Black Mustard (mustard; 16 g ai/ha, preemergence)
35: Plant response rating, Bluegrass (annual bluegrass; 16 g ai/ha, preemergence)
30: Plant response rating, Dallisgrass (dallisgrass; 16 g ai/ha, preemergence)
50: Plant response rating, Foxtail, Green (green foxtail; Preemergence, 31 g ai/ha) | Plant response rating, Kochia (kochia; Preemergence, 31 g ai/ha)
90: Plant response rating, Sedge, Umbrella (umbrella sedge; [2])
25: Plant response rating, Quackgrass (quackgrass; Preemergence, 31 g ai/ha)
65: Plant response rating, Bluegrass (annual bluegrass; Preemergence, 31 g ai/ha) | Plant response rating, Dallisgrass (dallisgrass; Preemergence, 31 g ai/ha) | Plant response rating, Black Mustard (mustard; Preemergence, 31 g ai/ha)
75: Quackgrass plant response rating (quackgrass; 62 g ai/ha, Preemergence)
100: Foxtail, Green plant response rating (green foxtail; 62 g ai/ha, Preemergence) | Foxtail, Green plant response rating (green foxtail; 125 g ai/ha, preemergence) | Crabgrass, Large plant response rating (crabgrass) | Plant response rating, Crabgrass, Large (crabgrass) | Plant response rating (0 to 100), Crabgrass, Large (crabgrass) | Bluegrass plant response rating (annual bluegrass; 62 g ai/ha, Preemergence) | Bluegrass plant response rating (annual bluegrass; 125 g ai/ha, preemergence) | Plant response rating, Mallow (common mallow; 16 g ai/ha, preemergence) | Mallow plant response rating (common mallow; 62 g ai/ha, Preemergence) | Mallow plant response rating (common mallow; 125 g ai/ha, preemergence) | Plant response rating, Mallow (common mallow; Preemergence, 31 g ai/ha) | Dallisgrass plant response rating (dallisgrass; 125 g ai/ha, preemergence) | Kochia plant response rating (kochia; 125 g ai/ha, preemergence) | Black Mustard plant response rating (mustard; 62 g ai/ha, Preemergence) | Black Mustard plant response rating (mustard; 125 g ai/ha, preemergence) | Plant response rating, Wheat (wheat; Preemergence, 500 g ai/ha) | Goosegrass plant response rating (Goosegrass) | Plant response rating, Goosegrass (Goosegrass) | Plant response rating (0 to 100), Goosegrass (Goosegrass) | Groundsel plant response rating (common groundsel; 125 g ai/ha, preemergence)
70: Kochia plant response rating (kochia; 62 g ai/ha, Preemergence) | Wheat plant response rating (wheat; [6])
